Test results: US9353107B2 (Aurigene Discovery Technologies Limited, priority 2012, dated 2016)

Target: T1, recombinant human ALK enzyme (ALK WT) (Homo sapiens, UniProt Q9UM73)
T1 construct: purchased Carna Biosciences 08-518
Assay: ALK WT cell free enzymatic assay (TR-FRET)
Assay type: biochemical
Conditions: 1 μM ATP; for inhibition at 0.1 µM: compound at 100 nM; for inhibition at 0.1 µM / inhibition at 1 µM: 30 min pre-incubation; for inhibition at 1 µM: compound at 1 μM; for IC50: 10 point dose response
Outline: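 Recombinant human ALK with 40 nM Ultra Light Poly GT, 1 μM ATP and Eu anti-phosphotyrosine antibody, 1% DMSO, pH 7.1 HEPES; 30 min enzyme-compound pre-incubation, then 30 min reaction. TR-FRET 665/615 ratio; percent inhibition at 100 nM and 1 μM, IC50 from 10-point sigmoidal fit.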

T1 sequence (Q9UM73 1058-1620 limits assumed): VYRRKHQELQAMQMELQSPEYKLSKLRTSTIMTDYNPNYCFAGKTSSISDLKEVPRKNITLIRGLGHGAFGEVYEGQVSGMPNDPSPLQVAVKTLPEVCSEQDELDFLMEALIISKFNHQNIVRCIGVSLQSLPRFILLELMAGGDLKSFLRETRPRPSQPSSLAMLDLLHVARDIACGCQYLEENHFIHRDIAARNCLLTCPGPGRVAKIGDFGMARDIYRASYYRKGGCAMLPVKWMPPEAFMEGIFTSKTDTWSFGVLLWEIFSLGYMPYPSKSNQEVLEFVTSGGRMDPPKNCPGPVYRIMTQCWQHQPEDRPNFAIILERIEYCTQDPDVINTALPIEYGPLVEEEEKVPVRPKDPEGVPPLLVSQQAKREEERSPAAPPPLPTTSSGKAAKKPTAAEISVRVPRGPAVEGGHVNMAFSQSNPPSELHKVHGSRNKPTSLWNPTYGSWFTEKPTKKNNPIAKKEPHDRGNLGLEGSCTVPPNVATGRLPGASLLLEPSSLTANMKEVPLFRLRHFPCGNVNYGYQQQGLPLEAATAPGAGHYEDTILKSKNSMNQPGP

Structure (SMILES) | inhibition at 0.1 µM | inhibition at 1 µM | IC50
COc1cc(-c2cnc3[nH]cc(-c4cnn(Cc5cccc(F)c5)c4)c3c2)ccc1NS(C)(=O)=O [Example 68, N-(4-(3-(1-(3-fluorobenzyl)-1H-pyrazol-4-yl)-1H-pyrrolo[2,3-b]pyridin-5-yl)-2-methoxyphenyl) methanesulfonamide] | 70% | 93% | 
Cc1nn(Cc2cccc(F)c2)c(C)c1-c1c[nH]c2ncc(-c3cccc(OC4CCNCC4)c3)cc12 [Example 96, 3-(1-(3-fluorobenzyl)-3,5-dimethyl-1H-pyrazol-4-yl)-5-(3-(piperidin-4-yloxy)phenyl)-1H-pyrrolo[2,3-b]pyridine] | 70% | 100% | < 50 nM
Fc1cc(F)cc(Cn2ccc(-c3c[nH]c4ncc(-c5ccc(N6CCNCC6)cc5)cc34)n2)c1 [Example 111, 3-(1-(3,5-difluorobenzyl)-1H-pyrazol-3-yl)-5-(4-(piperazin-1-yl)phenyl)-1H-pyrrolo[2,3-b]pyridine] | 82% | 100% | < 50 nM
Cc1nn(Cc2cccc(F)c2)c(C)c1-c1c[nH]c2ncc(-c3ccc(N4CCN(CCO)CC4)cc3)cc12 [Example 41, 2-(4-(4-(3-(1-(3-fluorobenzyl)-3,5-dimethyl-1H-pyrazol-4-yl)-1H-pyrrolo[2,3-b]pyridin-5-yl)phenyl)piperazin-1-yl)ethanol] | 90% | 100% | < 50 nM
CC(C)N1CCN(c2cccc(-c3cnc4[nH]cc(-c5cnn(Cc6cccc(F)c6)c5)c4c3)c2)CC1 [Example 35, 3-(1-(3-fluorobenzyl)-1H-pyrazol-4-yl)-5-(3-(4-isopropylpiperazin-1-yl)phenyl)-1H-pyrrolo[2,3-b]pyridine] | 98% | 99% | < 50 nM
Cc1nn(Cc2cccc(F)c2)c(C)c1-c1c[nH]c2ncc(-c3ccc(OCCN(C)C)c(NS(C)(=O)=O)c3)cc12 [Example 23, N-(2-(2-(dimethylamino)ethoxy)-5-(3-(1-(3-fluorobenzyl)-3,5-dimethyl-1H-pyrazol-4-yl)-1H-pyrrolo[2,3-b]pyridin-5-yl)phenyl)methanesulfonamide] | 73% | 99% | 50 to 250 nM
Cc1c(-c2c[nH]c3ncc(-c4ccc(N5CCN(C[C@H](C)O)CC5)cc4)cc23)cnn1Cc1cccc(F)c1 [Example 129, (S)-1-(4-(4-(3-(1-(3-fluorobenzyl)-5-methyl-1H-pyrazol-4-yl)-1H-pyrrolo[2,3-b]pyridin-5-yl)phenyl)piperazin-1-yl)propan-2-ol] | 96% | 99% | < 50 nM
CS(=O)(=O)Nc1cc(-c2cnc3[nH]cc(-c4cnn(Cc5cc(F)cc(F)c5)c4)c3c2)ccc1F [Example 79, N-(5-(3-(1-(3,5-difluorobenzyl)-1H-pyrazol-4-yl)-1H-pyrrolo[2,3-b]pyridin-5-yl)-2-fluorophenyl) methanesulfonamide] | 101% | 102% | < 50 nM
COc1cc(-c2cnc3[nH]cc(-c4cnn(Cc5cc(F)cc(F)c5)c4)c3c2)ccc1NS(C)(=O)=O [Example 73, N-(4-(3-(1-(3,5-difluorobenzyl)-1H-pyrazol-4-yl)-1H-pyrrolo[2,3-b]pyridin-5-yl)-2-methoxyphenyl)methanesulfonamide] | 92% | 97% | < 50 nM
Cc1nn(Cc2cccc(F)c2)cc1-c1c[nH]c2ncc(-c3cccc(N4CCNCC4)c3)cc12 [Example 37, 3-(1-(3-fluorobenzyl)-3-methyl-1H-pyrazol-4-yl)-5-(3-(piperazin-1-yl)phenyl)-1H-pyrrolo[2,3-b]pyridine] | 93% | 98% | < 50 nM

Next, values leading:

inhibition at 0.1 µM | inhibition at 1 µM | IC50 | Structure (SMILES)
95% | 99% | < 50 nM | C[C@@H](O)CN1CCN(c2ccc(-c3cnc4[nH]cc(-c5cnn(Cc6cccc(F)c6)c5)c4c3)cc2)CC1 [Example 120, (R)-1-(4-(4-(3-(1-(3-fluorobenzyl)-1H-pyrazol-4-yl)-1H-pyrrolo[2,3-b]pyridin-5-yl)phenyl)piperazin-1-yl)propan-2-ol]
99% | 100% | < 50 nM | Fc1cc(F)cc(Cn2cc(-c3c[nH]c4ncc(-c5ccc(C6CCNCC6)c(F)c5)cc34)cn2)c1 [Example 169, 3-(1-(3,5-difluorobenzyl)-1H-pyrazol-4-yl)-5-(3-fluoro-4-(piperidin-4-yl)phenyl)-1H-pyrrolo[2,3-b]pyridine]
 | 92% | 50 to 250 nM | CS(=O)(=O)Nc1cccc(-c2cnc3[nH]cc(-c4cnn(Cc5ccccc5F)c4)c3c2)c1 [Example 1, N-(3-(3-(1-(2-fluorobenzyl)-1H-pyrazol-4-yl)-1H-pyrrolo[2,3-b]pyridin-5-yl)phenyl)methanesulfonamide]
84% | 99% | < 50 nM | COc1cccc(Cn2cc(-c3c[nH]c4ncc(-c5ccc(C6CCNCC6)cc5)cc34)cn2)c1 [Example 87, 3-(1-(3-methoxybenzyl)-1H-pyrazol-4-yl)-5-(4-(piperidin-4-yl)phenyl)-1H-pyrrolo[2,3-b]pyridine]
99% | 100% | < 50 nM | Cc1c(-c2c[nH]c3ncc(-c4ccc(C5CCNCC5)cc4)cc23)cnn1Cc1cccc(F)c1 [Example 91, 3-(1-(3-fluorobenzyl)-5-methyl-1H-pyrazol-4-yl)-5-(4-(piperidin-4-yl)phenyl)-1H-pyrrolo[2,3-b]pyridine]
79% | 97% | < 50 nM | c1ccc(Cn2cc(-c3c[nH]c4ncc(-c5ccc(C6CCNCC6)cc5)cc34)cn2)nc1 [Example 93, 5-(4-(piperidin-4-yl)phenyl)-3-(1-(pyridin-2-ylmethyl)-1H-pyrazol-4-yl)-1H-pyrrolo[2,3-b]pyridine]
94% | 100% | < 50 nM | C[C@H](O)CN1CCN(c2ccc(-c3cnc4[nH]cc(-c5cnn(Cc6ccccc6)c5)c4c3)cn2)CC1 [Example 148, (S)-1-(4-(5-(3-(1-benzyl-1H-pyrazol-4-yl)-1H-pyrrolo[2,3-b]pyridin-5-yl)pyridin-2-yl)piperazin-1-yl)propan-2-ol]
96% | 98% | < 50 nM | COc1cc(-c2cnc3[nH]cc(-c4cnn(Cc5cccc(F)c5)c4)c3c2)ccc1C1CCNCC1 [Example 86, 3-(1-(3-fluorobenzyl)-1H-pyrazol-4-yl)-5-(3-methoxy-4-(piperidin-4-yl)phenyl)-1H-pyrrolo[2,3-b]pyridine]
97% | 100% | < 50 nM | Cc1nn(Cc2cccc(F)c2)cc1-c1c[nH]c2ncc(-c3ccc(C4CCNCC4)cc3)cc12 [Example 90, 3-(1-(3-fluorobenzyl)-3-methyl-1H-pyrazol-4-yl)-5-(4-(piperidin-4-yl)phenyl)-1H-pyrrolo[2,3-b]pyridine]
90% | 96% | < 50 nM | OC1CCN(c2ccc(-c3cnc4[nH]cc(-c5cnn(Cc6cccc(F)c6)c5)c4c3)cc2)CC1 [Example 122, 1-(4-(3-(1-(3-fluorobenzyl)-1H-pyrazol-4-yl)-1H-pyrrolo[2,3-b]pyridin-5-yl)phenyl)piperidin-4-ol]
